Laboratory results taken from patent US20070196866A1, “Modulators of ion channel trpa1” (IRM LLC, priority 2004, published 2007).
Values joined by “and” are separate entries in the source; they are usually repeats but may differ in a detail not shown here. Equal values may be shown once. Read-outs that look alike come from different tables or passages of the source.

Columns and labels:
mTRPA1 [1] = molecular target: T1, mTRPA1 (Mus musculus, UniProt Q8BLA8); experiment: Ratiometric calcium imaging of CHO cells expressing mTRPA1; format: cell-based; conditions: for increase in intracellular free calcium: ratiometric calcium imaging
T1 construct: expressed in transfected cells; host or cells: CHO cells

mouse TRPA1 [2] = molecular target: T2, mouse TRPA1 (Mus musculus, UniProt Q8BLA8); experiment: FLIPR intracellular calcium assay, mouse TRPA1-expressing CHO cells; format: cell-based; conditions: FLIPR; for increase in intracellular calcium upon application: mTRPA1 CHO cells; for EC50: mTRPA1
T2 construct: expressed in transfected cells; host or cells: CHO cells

B2R-expressing cells = experiment: Calcium imaging of BK responses in B2R-expressing cells; format: cell-based; conditions: 10 μM
Excerpt: (§1) We next tested if specific inhibition of PLC by U-73122 would affect TRPA1 activation by bradykinin. […] We then tested if PLC inhibition of TRPA1 was stimulus specific. […] We further tested the role of PLC inhibition on TRPM8.

TRPM8 = experiment: Calcium imaging of TRPM8-expressing CHO cells; format: cell-based
Protocol: We focused on the two mTRPA1-specific compounds. Using FLIPR, we determined the concentration for half maximal activation to be 61±9 μM for cinnamaldehyde and 22±3 μM for allyl isothiocyanate. […] Ruthenium red, a known blocker of mTRPA1, blocked the cinnamaldehyde response.
as §1

[3] = tested on: B2R/TRPA1- expressing CHO cells; experiment: Calcium imaging of BK responses in B2R/TRPA1-expressing CHO cells; format: cell-based; conditions: 10 μM
Excerpt: as §1

TRPV4 = molecular target: T3, TRPV4 (Homo sapiens, UniProt Q9HBA0); experiment: Calcium imaging of TRPV4-expressing CHO cells; format: cell-based
T3 construct: expressed in transfected cells; host or cells: CHO cells

adult rat DRG neurons = experiment: Calcium imaging of cultured adult rat DRG neurons; format: cell-based; conditions: 1.6 times the EC50
Excerpt: To further test this hypothesis, and to find out if the pungent compounds described above activate TRPA1 specifically, we performed calcium imaging of adult rat DRG neurons in response to cold, menthol, cinnamaldehyde, allyl isothiocyanate, and bradykinin. […] To a large extent, cinnamaldehyde and menthol activated mutually exclusive populations of cold-responsive neurons, as our model would predict. Allyl isothiocyanate appeared less specific as it activated 63% of the cold-responsive population (including a large overlap with menthol) and 12% of the cold-insensitive population. We have used 1.6 times the EC50 values of cinnamaldehyde and allyl isothiocyanate to enable us to directly compare DRG response profiles to these compounds. […] There were no significant differences in profiles of cinnamaldehyde and allyl isothiocyanate between cultures in the presence of 1 and 100 ng/ml of NGF.
In addition to the pungent sensory compounds, we have shown that BK can activate TRPA1.
To test if garlic extracts and allicin specifically activate TRPA1 in native neurons, we performed calcium imaging of adult rat DRG neurons. […] Addition of allicin or garlic extract to cultured rat DRG neurons activated a specific population of neurons.

TRPV1 = experiment: Calcium imaging of TRPV1-expressing CHO cells; format: cell-based
dTRPA1 (dANTKM1) = molecular target: T4, dTRPA1 (dANTKM1) (Drosophila melanogaster, UniProt Q7Z020); experiment: Current recording in oocytes expressing dTRPA1; format: cell-based
T4 construct: expressed in transfected cells; host or cells: oocytes (Xenopus, from the preceding sentences)
T4 sequence (Q7Z020 1-1197): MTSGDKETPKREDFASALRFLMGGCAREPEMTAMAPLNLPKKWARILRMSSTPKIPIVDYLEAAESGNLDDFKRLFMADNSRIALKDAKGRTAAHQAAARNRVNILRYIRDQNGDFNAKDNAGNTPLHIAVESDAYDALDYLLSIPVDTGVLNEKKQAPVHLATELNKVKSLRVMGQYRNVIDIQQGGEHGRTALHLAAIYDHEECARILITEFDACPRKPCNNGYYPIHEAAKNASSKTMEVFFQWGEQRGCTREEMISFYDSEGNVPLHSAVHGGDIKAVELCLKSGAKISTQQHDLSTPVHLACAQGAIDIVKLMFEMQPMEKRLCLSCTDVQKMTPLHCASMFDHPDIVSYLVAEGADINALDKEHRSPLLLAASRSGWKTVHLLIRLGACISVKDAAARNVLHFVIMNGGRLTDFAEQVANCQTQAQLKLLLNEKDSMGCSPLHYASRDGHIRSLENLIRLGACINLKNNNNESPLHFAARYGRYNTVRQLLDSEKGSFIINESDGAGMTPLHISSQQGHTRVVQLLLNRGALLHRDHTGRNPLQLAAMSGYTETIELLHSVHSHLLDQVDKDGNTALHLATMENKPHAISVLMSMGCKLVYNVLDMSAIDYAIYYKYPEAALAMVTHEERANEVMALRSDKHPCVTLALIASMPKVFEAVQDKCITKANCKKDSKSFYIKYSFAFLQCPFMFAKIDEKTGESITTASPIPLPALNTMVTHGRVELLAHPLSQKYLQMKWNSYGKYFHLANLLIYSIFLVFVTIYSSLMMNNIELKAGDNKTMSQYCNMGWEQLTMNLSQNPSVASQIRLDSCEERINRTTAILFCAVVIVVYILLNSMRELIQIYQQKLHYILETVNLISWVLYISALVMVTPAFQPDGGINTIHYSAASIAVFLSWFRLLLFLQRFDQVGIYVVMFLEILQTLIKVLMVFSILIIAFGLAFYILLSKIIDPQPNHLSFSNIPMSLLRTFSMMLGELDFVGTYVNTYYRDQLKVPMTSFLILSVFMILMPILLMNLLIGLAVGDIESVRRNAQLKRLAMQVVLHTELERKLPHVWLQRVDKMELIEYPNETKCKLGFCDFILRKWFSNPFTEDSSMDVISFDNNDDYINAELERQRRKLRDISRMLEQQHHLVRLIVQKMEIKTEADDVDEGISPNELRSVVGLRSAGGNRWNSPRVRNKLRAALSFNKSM

[4] = Nociceptive behavior after intraplantar injection in mice; format: in vivo
[5] = Paw withdrawal latency to heat (hyperalgesia) after intraplantar injection; format: in vivo, mice
Protocol: To provide further evidence of the role of TRPA1 in pain sensation, we investigated if cinnamaldehyde injections could lead to hyperalgesia, an increased response to pain due to sensitization often caused by inflammation or injury. […] In contrast, no significant difference could be observed between the latencies of the two paws when vehicle was injected.
Hyperalgesia to heat is thought to involve sensitization of TRPV1. […] Note that paw withdrawal latencies to heat are higher in TRPV1^−/− mice, consistent with the partial heat sensitivity phenotype of these mice (Caterina et al., Science 288: 306-313, 2000; and Davis et al., Nature 405: 183-187, 2000). Therefore, the acute nociceptive response of cinnamaldehyde is independent of TRPV1, while the heat hyperalgesia is mediated through TRPV1.

human TRPA1 (hTRPA1) = molecular target: T5, human TRPA1 (hTRPA1) (Homo sapiens, UniProt O75762); experiment: Current recording in Xenopus oocytes expressing human TRPA1; format: cell-based
T5 construct: expressed in transfected cells; host or cells: Xenopus oocytes
Excerpt: (§2) We also characterized the cinnamaldehyde-induced current in mTRPA1 expressing CHO cells. […] Expression of either mouse or human TRPA1 (hTRPA1) in Xenopus oocytes rendered these cells responsive to cinnamaldehyde as well as to cold temperatures. […] Indeed, the cinnamaldehyde-induced current from mTRPA1-expressing oocytes rarely returned to baseline, even after washing out the compound.
Increased currents by repeated application of cinnamaldehyde (sensitization) in oocyte recordings is in contrast to strong desensitization to cinnamaldehyde observed in mTRPA1-expressing CHO cell.

mTRPA1 [6] = molecular target: T1, mTRPA1; experiment: Whole cell patch clamp of mTRPA1-expressing CHO cells; format: cell-based
Excerpt: as §2

mouse TRPA1 [7] = molecular target: T2, mouse TRPA1; experiment: Current recording in Xenopus oocytes expressing mouse TRPA1; format: cell-based
Excerpt: as §2

TRPA1 = TRPA1 (Homo sapiens, UniProt O75762); experiment: Thapsigargin response of cells transiently transfected with hTRPA1 and YFP reporter; format: cell-based; design: expressed in transfected cells; conditions: same coverslip
Excerpt: Phospholipase C (PLC) and phospholipase A2 are activated by BK signaling. Since many TRP channels are modulated by PLC activity, we tested whether downstream affectors of PLC can modulate TRPA1 function. One of the major consequences of PLC activation is the release of calcium from intracellular stores. We therefore tested if passive release of calcium from the stores with the […] endoplasmic reticulum Ca^2+-ATPase (SERCA) pump blocker thapsigargin could activate TRPA1 function. We examined the effect of thapsigargin on cells transiently-transfected with hTRPA1 and YFP reporter plasmid. This allowed for a direct comparison between TRPA1-expressing (YFP positive) and control (YFP negative) cells under the same experimental conditions (on the same coverslip).

T2 sequence (Q8BLA8 whole entry): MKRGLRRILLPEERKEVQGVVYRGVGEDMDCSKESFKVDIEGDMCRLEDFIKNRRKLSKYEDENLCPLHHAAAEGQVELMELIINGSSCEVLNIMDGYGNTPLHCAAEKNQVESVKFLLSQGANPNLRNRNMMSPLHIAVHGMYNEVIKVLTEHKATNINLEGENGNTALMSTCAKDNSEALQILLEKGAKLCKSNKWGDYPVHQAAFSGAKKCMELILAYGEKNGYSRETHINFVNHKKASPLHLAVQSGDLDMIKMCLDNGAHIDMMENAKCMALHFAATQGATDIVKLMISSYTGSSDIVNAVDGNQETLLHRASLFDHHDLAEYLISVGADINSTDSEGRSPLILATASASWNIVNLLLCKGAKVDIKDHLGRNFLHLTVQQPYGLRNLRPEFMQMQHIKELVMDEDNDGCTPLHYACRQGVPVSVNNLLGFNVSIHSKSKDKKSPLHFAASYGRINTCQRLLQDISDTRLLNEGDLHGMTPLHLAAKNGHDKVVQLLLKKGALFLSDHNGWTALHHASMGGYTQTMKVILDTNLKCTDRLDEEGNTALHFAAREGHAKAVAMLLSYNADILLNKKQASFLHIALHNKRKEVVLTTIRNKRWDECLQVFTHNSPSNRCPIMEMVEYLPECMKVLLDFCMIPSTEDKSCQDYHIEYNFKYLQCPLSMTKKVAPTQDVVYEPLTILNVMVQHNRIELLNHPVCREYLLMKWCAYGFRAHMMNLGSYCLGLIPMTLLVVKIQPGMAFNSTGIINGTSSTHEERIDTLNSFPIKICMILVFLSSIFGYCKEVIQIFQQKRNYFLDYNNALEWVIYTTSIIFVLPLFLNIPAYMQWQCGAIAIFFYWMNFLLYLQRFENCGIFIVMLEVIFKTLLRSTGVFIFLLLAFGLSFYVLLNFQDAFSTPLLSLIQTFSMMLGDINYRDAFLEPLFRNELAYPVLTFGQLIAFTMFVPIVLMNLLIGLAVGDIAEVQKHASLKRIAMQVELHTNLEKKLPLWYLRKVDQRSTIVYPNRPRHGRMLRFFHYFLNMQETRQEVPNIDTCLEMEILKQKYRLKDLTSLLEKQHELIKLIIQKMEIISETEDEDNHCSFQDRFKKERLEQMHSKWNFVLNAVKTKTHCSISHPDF
T1 sequence (Q8BLA8 whole entry): as above
T5 sequence (O75762 whole entry): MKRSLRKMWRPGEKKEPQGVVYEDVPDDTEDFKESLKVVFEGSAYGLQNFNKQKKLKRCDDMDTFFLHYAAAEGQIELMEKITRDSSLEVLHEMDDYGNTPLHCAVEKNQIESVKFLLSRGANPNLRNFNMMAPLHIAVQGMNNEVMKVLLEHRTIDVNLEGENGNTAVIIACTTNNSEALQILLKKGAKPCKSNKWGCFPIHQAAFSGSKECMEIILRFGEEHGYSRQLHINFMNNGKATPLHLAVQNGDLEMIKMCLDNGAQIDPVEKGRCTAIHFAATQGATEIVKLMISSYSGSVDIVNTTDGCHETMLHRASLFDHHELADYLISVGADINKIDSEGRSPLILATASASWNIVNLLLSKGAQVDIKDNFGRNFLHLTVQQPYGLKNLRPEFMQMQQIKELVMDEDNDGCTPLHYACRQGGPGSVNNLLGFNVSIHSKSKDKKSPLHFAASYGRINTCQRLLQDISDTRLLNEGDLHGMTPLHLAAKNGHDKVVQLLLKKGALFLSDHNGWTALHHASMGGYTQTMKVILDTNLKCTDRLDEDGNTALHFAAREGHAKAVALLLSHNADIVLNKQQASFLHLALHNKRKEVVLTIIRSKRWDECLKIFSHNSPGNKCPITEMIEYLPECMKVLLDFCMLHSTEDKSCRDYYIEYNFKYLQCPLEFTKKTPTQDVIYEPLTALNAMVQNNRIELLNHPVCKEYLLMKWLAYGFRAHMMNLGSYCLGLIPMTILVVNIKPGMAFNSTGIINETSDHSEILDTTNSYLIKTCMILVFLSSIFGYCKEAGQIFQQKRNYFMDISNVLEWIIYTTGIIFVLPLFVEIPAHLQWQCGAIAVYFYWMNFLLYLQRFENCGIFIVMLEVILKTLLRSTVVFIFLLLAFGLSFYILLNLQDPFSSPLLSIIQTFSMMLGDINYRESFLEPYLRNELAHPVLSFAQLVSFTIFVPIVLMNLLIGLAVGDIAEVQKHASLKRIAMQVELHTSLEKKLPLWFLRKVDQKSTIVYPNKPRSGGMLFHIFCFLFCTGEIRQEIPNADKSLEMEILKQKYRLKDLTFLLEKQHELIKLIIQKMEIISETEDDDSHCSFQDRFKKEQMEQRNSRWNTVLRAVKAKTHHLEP
T3 sequence (Q9HBA0 whole entry, species assumed): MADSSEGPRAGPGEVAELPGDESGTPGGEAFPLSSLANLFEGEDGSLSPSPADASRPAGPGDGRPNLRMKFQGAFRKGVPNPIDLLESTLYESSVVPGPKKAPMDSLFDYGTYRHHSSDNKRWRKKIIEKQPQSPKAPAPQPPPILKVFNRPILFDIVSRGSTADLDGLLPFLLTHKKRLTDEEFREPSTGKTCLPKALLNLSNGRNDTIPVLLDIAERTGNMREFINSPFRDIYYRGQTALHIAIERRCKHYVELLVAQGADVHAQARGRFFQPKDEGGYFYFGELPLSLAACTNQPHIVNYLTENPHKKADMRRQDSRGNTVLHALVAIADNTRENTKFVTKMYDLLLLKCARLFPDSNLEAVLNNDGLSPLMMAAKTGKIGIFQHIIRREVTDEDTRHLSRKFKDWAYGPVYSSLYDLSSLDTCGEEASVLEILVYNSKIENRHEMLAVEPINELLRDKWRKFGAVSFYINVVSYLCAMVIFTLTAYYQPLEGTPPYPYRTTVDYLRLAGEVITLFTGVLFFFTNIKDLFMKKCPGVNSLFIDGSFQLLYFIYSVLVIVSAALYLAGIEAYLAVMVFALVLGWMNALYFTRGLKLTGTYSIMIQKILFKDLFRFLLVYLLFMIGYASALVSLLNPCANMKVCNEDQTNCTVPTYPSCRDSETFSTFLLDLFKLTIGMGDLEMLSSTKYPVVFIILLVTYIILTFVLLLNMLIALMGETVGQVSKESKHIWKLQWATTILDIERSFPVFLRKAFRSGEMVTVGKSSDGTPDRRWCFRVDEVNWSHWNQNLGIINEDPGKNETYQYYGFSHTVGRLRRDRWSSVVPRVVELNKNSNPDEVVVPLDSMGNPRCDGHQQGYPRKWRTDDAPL
Sequence of TRPA1 (O75762 whole entry): as the sequence (O75762 whole entry) above

For `CCCCC/C=C\C/C=C\C/C=C\C/C=C\CCCC(=O)O` [AA, arachidonic acid], the “activation of mTRPA1/TRPA1-expressing CHO cells” value (mTRPA1 [1]) was “activated”.
For `CCCCCC#CCC#CCC#CCC#CCCCC(=O)O` [ETYA, 5,8,11,14-Eicosatetraynoic acid], the “activation of mTRPA1/TRPA1-expressing CHO cells” value (mTRPA1 [1]) was “activated”.
With `C=CCc1ccc(O)c(OC)c1` [Eugenol] the “increase in intracellular calcium upon application” value (mouse TRPA1 [2]) was “sharp increase in intracellular calcium”.
With `CCCCC[C@H](O)CC(=O)CCc1ccc(O)c(OC)c1` [Gingerol] the “increase in intracellular calcium upon application” value (mouse TRPA1 [2]) was “sharp increase in intracellular calcium”.
In the case of `N.N.N.N.N.N.N.N.N.N.N.N.N.N.[Cl-].[Cl-].[Cl-].[Cl-].[Cl-].[Cl-].[O-2].[O-2].[Ru+3].[Ru+3].[Ru+4]` [Ruthenium red], the “block of AA activation” value (mTRPA1 [1]; stimulus AA) is reported as “blocked”, the “block of the OAG response” value (mTRPA1 [1]; stimulus OAG) is reported as “blocked” and the “block of the cinnamaldehyde response” value (mTRPA1 [1]; stimulus cinnamaldehyde) is reported as “blocked”.
For `COc1ccc2c(c1)CC[C@@H]1[C@@H]2CC[C@]2(C)[C@@H](NCCCCCCN3C(=O)C=CC3=O)CC[C@@H]12` [U-73122], the “inhibition of BK responses in B2R-expressing cells” value (B2R-expressing cells) was “inhibited”, the “effect on cold- and menthol-induced responses of TRPM8” value (TRPM8; preincubation necessary for menthol block) was “strongly dowregulated” and the “inhibition of BK responses in B2R/TRPA1-expressing CHO cells” value [3] was “inhibited”. For the same compound, the “effect on TRPA1 activation by cinnamaldehyde” value (mTRPA1 [1]; stimulus cinnamaldehyde) was “inhibited” and the “effect on TRPA1 activation by cold” value (mTRPA1 [1]; stimulus cold) was “strongly downregulated”.
For `COc1ccc2c(c1)CC[C@@H]1[C@@H]2CC[C@]2(C)[C@@H](NCCCCCCN3C(=O)CCC3=O)CC[C@@H]12` [U-73343], the “inhibition of BK responses in B2R-expressing cells” value (B2R-expressing cells) was “not” and the “inhibition of BK responses in B2R/TRPA1-expressing CHO cells” value [3] was “not”.
In the case of `C=CCN=C=S` [allyl isothiocyanate], the “activation of TRPV4-expressing CHO cells” value (TRPV4) is reported as “did not activate”, the “activation of TRPM8-expressing CHO cells” value (TRPM8) is reported as “did not activate” and the “share of cold-activated (cold-responsive) DRG neurons activated” value (adult rat DRG neurons) is reported as 63%. For the same compound, the “share of cold-insensitive neurons activated” value (adult rat DRG neurons) was 12%, the “activation of TRPV1-expressing CHO cells” value (TRPV1) was “did not activate” and the “specificity to mTRPA1 when tested against TRPM8 and TRPV1” value (mouse TRPA1 [2]) was “specific to mTRPA1”. The EC50 (mouse TRPA1 [2]; read-out: concentration for half maximal activation (EC50)) was 22 ± 3 µM, the “increase in intracellular calcium upon application” value (mouse TRPA1 [2]) was “sharp increase in intracellular calcium” and the “increase in intracellular free calcium” value (mTRPA1 [1]) was “robust increase in intracellular free calcium”.
With `O=CC=Cc1ccccc1` [cinnamaldehyde] the “response of dTRPA1-expressing oocytes” value (dTRPA1 (dANTKM1)) was “did not respond”, the “activation of TRPV4-expressing CHO cells” value (TRPV4) was “did not activate” and the response to injection ([4]; TRPV1−/− mice) was “responded”. The “licking and shaking of the injected hindpaw” value ([4]; wildtype mice, intraplantar, five minutes post-injection, cinnamaldehyde 5 mM and 16.4 mM) was “induced licking and shaking of the injected hindpaw”, the “activation of TRPM8-expressing CHO cells” value (TRPM8) was “did not activate” and the heat hyperalgesia ([5]; TRPV1−/− mice) was “absent”. For the same compound, the “paw withdraw latency, injected compared to control paws” value ([5]; thirty minutes after injection, p=0.009) was “significantly lowered”, the “response of human TRPA1-expressing oocytes” value (human TRPA1 (hTRPA1)) was “responsive” and the “current of second pulse relative to first pulse” value (human TRPA1 (hTRPA1); repeated applications, n=6) was 250±23%. The “share of cold-activated (cold-responsive) DRG neurons activated” value (adult rat DRG neurons) was 39%, the “share of cold-insensitive neurons activated” value (adult rat DRG neurons) was 1% and the “activation of TRPV1-expressing CHO cells” value (TRPV1) was “did not activate”. The elicited current (mTRPA1 [6]) was “robust desensitized current”, the “response of mouse TRPA1-expressing oocytes” value (mouse TRPA1 [7]) was “responsive” and the “specificity to mTRPA1 when tested against TRPM8 and TRPV1” value (mouse TRPA1 [2]) was “specific to mTRPA1”. For the same compound, the “increase in intracellular calcium upon application” value (mouse TRPA1 [2]) was “sharp increase in intracellular calcium”, the EC50 (mouse TRPA1 [2]; concentration for half maximal activation (EC50)) was 61 µM and ~61 µM and the “increase in intracellular free calcium” value (mTRPA1 [1]) was “robust increase in intracellular free calcium”.
With `C/C=C(/C)C(=O)O[C@H]1C(C)=C2[C@H]([C@@H]1OC(=O)CCCCCCC)[C@@](C)(OC(C)=O)C[C@H](OC(=O)CCC)[C@@]1(O)[C@H]2OC(=O)[C@@]1(C)O` [thapsigargin] the “response in YFP-positive (TRPA1-expressing) cells compared with control cells” value (TRPA1) was “slightly smaller than in YFP-negative cells”.
